Literature values, collected in patent publication US11795119B2, “Stabilized DCD and/or alkyl thiophosphoric triamide solvent systems and use in agricultural applications” (RHODIA OPERATIONS, priority 2016, dated 2023).

Key:
[1] = typically above 45° C.

Compound: N#CNC(=N)N [Dicyandiamide, 2-cyanoguanidine]
- solubility in water: about 41 g/l

Compound: CCCCNP(N)(N)=S [NBPT, N-(n-butyl)-thiophosphoric triamide]
- degradation at higher temperature [1]: degrades rapidly
